# In patent US6924304B2, “Cell proliferation inhibitors” (Abbott Laboratories, priority 1999, dated 2005):
# Where a name gives a salt, the structure may show the parent alone.
# How the values were obtained:
# [1] = test system: human colon adenocarcinoma, MDR positive (HCT-15) cells; test: 48-hour cellular proliferation assay (sulforhodamine staining), HCT-15 cells; type: cell-based; conditions: 10^−4 M compound, HCT-15 cells (MDR positive); for inhibition at 100 µM: Homo sapiens
# Procedure: (§1) Compounds of this invention were tested in a 48-hour cellular proliferation assay which uses human colon adenocarcinoma, MDR positive (HCT-15) cells, and human lung large cell carcinoma, MDR negative (NCI-H460) cells, in the 96-well microtitre format described in Skehan P., et al. New Colorimetric Cytotoxicity Assay for Anticancer Drug Screening. 1990, J. Natl. Cancer Inst. 82:1107-1112, hereby incorporated by reference. Briefly, the wells of a microtitre plate were charged sequentially with cultured cells and compounds of the invention (1.0×10^−4 to 1.0×10^−11 M in 10% DMSO prepared by dissolving compounds of the invention in DMSO and adding 11 μL of the DMSO solution to 100 μL of culture medium for a final DMSO concentration of 10%). Two of the following controls were also present in each microtitre plate: a solvent (DMSO) control without drug that yielded a 0% inhibition level and a trichloroacetic acid-treated well that yielded a 100% inhibition level. The cells were grown in culture (37° C., 5% CO2 atmosphere) for 48 hours then fixed by the addition of trichloroacetic acid. The wells were stained with sulforhodamine, washed with 1% acetic acid, and treated with 0.01 M tris buffer (100 μL) to solubilize the adherent dye. The absorbance of the dye solution was measured with a Molecular Devices SpectraMax340 plate reader. The percent inhibition values were obtained by calculating the proportional response of the experimental values to the absorbance values of the controls.
# [2] = test system: human lung large cell carcinoma, MDR negative (NCI-H460) cells; test: 48-hour cellular proliferation assay (sulforhodamine staining), NCI-H460 cells; type: cell-based; conditions: 10^−4 M compound; for inhibition at 100 µM: Homo sapiens, read-out: NCI-460 % inhibition at 10^−4 M
# Procedure: as §1
Compound,inhibition at 100 µM [1] [%],melting point [°C],inhibition at 100 µM [2] [%],HCT-15 % inhibition at 10^−4 M [1] [%],NCI-460 % inhibition at 10^−4 M [2] [%]
"COc1ccc(CSc2cc(OC)c(OC)c(OC)c2)cc1 [Example 85, 1,2,3-trimethoxy-5-((4-methoxybenzyl)sulfanyl)benzene]",99.8,65 to 67,99.6,–,–
"COc1ccc(CS(=O)(=O)c2cc(OC)c(OC)c(OC)c2)cc1 [Example 87, 1,2,3-trimethoxy-5-((4-methoxybenzyl)sulfonyl)benzene]",99.9,95 to 97,99.6,–,–
"COc1cc(S(=O)(=O)Nc2ccc3c(c2)ncn3C)cc(OC)c1OC [Example 36, 3,4,5-trimethoxy-N-(1-methyl-1H-benzimidazol-5-yl)benzenesulfonamide]",99.3,–,99.5,–,–
"COc1cc(NS(=O)(=O)c2ccc([N+](=O)[O-])cc2)cc(OC)c1OC [Example 5, 4-nitro-N-(3,4,5-trimethoxyphenyl)benzenesulfonamide]",68.5,–,99.9,–,–
"COc1cc(S(=O)(=O)N(CCN(C)C)c2ccc3c(ccn3C)c2)cc(OC)c1OC [Example 38, 3,4,5-trimethoxy-N-(2-(dimethylamino)ethyl)-N-(1-methyl-1H-indol-5-yl)benzenesulfonamide]",87.5,–,81,–,–
"COc1ccc(S(=O)(=O)Cc2cc(OC)c(OC)c(OC)c2)cc1N [Example 96, 2-methoxy-5-((3,4,5-trimethoxybenzyl)sulfonyl)aniline]",99.8,–,99.9,–,–
"COc1cc(N(C(=O)[C@@H](N)Cc2cnc[nH]2)S(=O)(=O)c2ccc3c(ccn3C)c2)cc(OC)c1OC [Example 76, N-((2S)-2-amino-3-(1H-imidazol-5-yl)propanoyl)-1-methyl-N-(3,4,5-trimethoxyphenyl)-1H-indole-5-sulfonamide]",–,175 to 177,–,–,–
"COc1cc(NS(=O)(=O)c2cc(OC)c(OC)c(OC)c2)ccc1F [Example 25, N-(4-fluoro-3-methoxyphenyl)-3,4,5-trimethoxybenzenesulfonamide]",62.1,–,57.8,–,–
"COc1cc(NS(=O)(=O)c2ccc(C(F)(F)F)cc2)cc(OC)c1OC [Example 4, 4-trifluoromethyl-N-(3,4,5-trimethoxyphenyl)benzenesulfonamide]",82.6,–,99.8,–,–
"COc1ccc(S(=O)(=O)Oc2cc(OC)c(OC)c(OC)c2)cc1N [Example 43, (3,4,5-trimethoxyphenyl) 3-amino-4-methoxybenzenesulfonate]",100,–,100,–,–
"COc1ccc(C[S+]([O-])c2cc(OC)c(OC)c(OC)c2)cc1 (stereo not drawn) [Example 86, 1,2,3-trimethoxy-5-((4-methoxybenzyl)sulfinyl)benzene]",99.4,103 to 105,96.5,–,–
"COc1cc(NS(=O)(=O)c2ccccc2[N+](=O)[O-])cc(OC)c1OC [Example 8, 2-nitro-N-(3,4,5-trimethoxyphenyl)benzenesulfonamide]",53.8,–,50,–,–
"COc1ccc(SCc2cc(OC)c(OC)c(OC)c2)cc1 [Example 93, 1,2,3-trimethoxy-5-(((4-methoxyphenyl)sulfanyl)methyl)benzene]",99.9,–,98.6,–,–
"COc1cc(NS(=O)(=O)c2ccc(NC(=O)CCl)cc2)cc(OC)c1OC [Example 7, 4-((2-chloroacetyl)amino)-N-(3,4,5-trimethoxyphenyl)benzenesulfonamide]",96.7,–,89.2,–,–
"COc1ccc(S(=O)(=O)C(C)(C)c2cc(OC)c(OC)c(OC)c2)cc1 [Example 95, 1,2,3-trimethoxy-5-(1-((4-methoxyphenyl)sulfonyl)-1-methylethyl)benzene]",84.8,–,9.1,–,–
"COc1ccc(OS(=O)(=O)c2cc(OC)c(OC)c(OC)c2)cc1 [Example 47, 4-methoxyphenyl 3,4,5-trimethoxybenzenesulfonate]",100,–,99.9,–,–
"COc1cc(S(=O)(=O)Nc2c(F)c(F)c(F)c(F)c2F)cc(OC)c1OC [Example 27, 3,4,5-trimethoxy-N-(2,3,4,5,6-pentafluorophenyl)benzenesulfonamide]",57,–,61.6,–,–
"COc1cc(N(C(=O)CN(C)C)S(=O)(=O)c2ccc3c(ccn3C)c2)cc(OC)c1OC (as salt: salt) [Example 67, N-((dimethylamino)acetyl)-1-methyl-N-(3,4,5-trimethoxyphenyl)-1H-indole-5-sulfonamide]",–,200 to 203,–,–,–
"COc1ccc(S(=O)(=O)Nc2cc(OC)c(OC)c(OC)c2)cc1N [Example 10, 3-amino-4-methoxy-N-(3,4,5-trimethoxyphenyl)benzenesulfonamide hydrochloride]",99.8,–,99.6,–,–
"COc1cc(S(=O)(=O)Oc2ccc(C)cc2)cc(OC)c1OC [Example 45, 4-methylphenyl 3,4,5-trimethoxybenzenesulfonate]",99.9,–,99.4,–,–
"COc1cc(S(=O)(=O)N(C)c2ccc3c(ccn3C)c2)cc(OC)c1OC [Example 37, 3,4,5-trimethoxy-N-methyl-N-(1-methyl-1H-indol-5-yl)benzenesulfonamide]",99.9,–,100,–,–
"3,4-dimethoxy-N-(3,4,5-trimethoxyphenyl)benzamide [Example 2]",–,–,–,>95,99.6
